Laboratory results published in patent US20220213092A1, “BICYCLIC PYRAZOLE BRUTON'S TYROSINE KINASE INHIBITORS” (AbbVie Inc., priority 2020, published 2022).
Read-outs that look alike come from different tables or passages of the source.

Target: T1, BTK (Homo sapiens, UniProt Q06187)
T1 construct: purchased Nanosyn, Santa Clara, Calif; host or cells: 293HEK
Assay: BTK kinase electrophoretic mobility shift assay (MSA)
Type: biochemical
Description: Kinase activity, unless otherwise indicated, was measured in vitro using an electrophoretic mobility shift assay (MSA). The phosphorylation of a peptide substrate by BTK and other kinases was measured. The kinase reactions were assembled in a total volume of 25 μL per well in 384 well plates. The following was added to each well: compound buffer (or control); enzyme buffer; and substrate buffer, as further described below.
The terminated reactions were analyzed using a 12 channel LABCHIP® 3000 microfluidic detection instrument (available from Caliper Life Sciences, Waltham, Mass.). […] Change in the relative fluorescence intensity of the substrate and product peaks was the parameter measured, reflecting enzyme activity. In the presence of an inhibitor, the ratio between product and substrate was altered. The signal of the product decreased, while the signal of the substrate increased. Capillary electrophoregrams (RDA acquisition files) were analyzed using HTS Well Analyzer software (available from Caliper Life Sciences, Waltham, Mass.).
Activity in each sample was determined as the product to sum ratio (PSR): P/(S+P), where P was the peak height of the product peptide and S was the peak height of the substrate peptide. For each compound, enzyme activity was measured at various concentrations (12 concentrations of compound spaced by 3× dilution intervals). Negative control samples (00 inhibition in the absence of inhibitor) and positive control samples (10000 inhibition, in the presence of 20 mM EDTA) were assembled in replicates of four and were used to calculate 00 inhibition values for each inhibitor at each concentration. Percent inhibition (Pinh) was determined using following equation: Pinh=(PSR0%−PSRinh)/(PSR0%−PSR100%)*100, where PSRinh was the product sum ratio in the presence of inhibitor, PSR0% was the average product sum ratio in the absence of inhibitor and PSR100% was the average product sum ratio in 100%−inhibition control samples.
The IC50 values of inhibitors were determined by 4 parameter sigmoidal dose response model fitting of the inhibition curves (Pinh versus inhibitor concentration) using XLfit® 4 software (available from IDBS, Boston, Mass.).

[1] = 50 μM ATP, 0.5 nM BTK enzyme (Nanosyn-293HEK, WT), 3 hours at 25° C., all examples except 50, 51, 62 and 63, read-out: BTK IC50

T1 sequence (Q06187 whole entry): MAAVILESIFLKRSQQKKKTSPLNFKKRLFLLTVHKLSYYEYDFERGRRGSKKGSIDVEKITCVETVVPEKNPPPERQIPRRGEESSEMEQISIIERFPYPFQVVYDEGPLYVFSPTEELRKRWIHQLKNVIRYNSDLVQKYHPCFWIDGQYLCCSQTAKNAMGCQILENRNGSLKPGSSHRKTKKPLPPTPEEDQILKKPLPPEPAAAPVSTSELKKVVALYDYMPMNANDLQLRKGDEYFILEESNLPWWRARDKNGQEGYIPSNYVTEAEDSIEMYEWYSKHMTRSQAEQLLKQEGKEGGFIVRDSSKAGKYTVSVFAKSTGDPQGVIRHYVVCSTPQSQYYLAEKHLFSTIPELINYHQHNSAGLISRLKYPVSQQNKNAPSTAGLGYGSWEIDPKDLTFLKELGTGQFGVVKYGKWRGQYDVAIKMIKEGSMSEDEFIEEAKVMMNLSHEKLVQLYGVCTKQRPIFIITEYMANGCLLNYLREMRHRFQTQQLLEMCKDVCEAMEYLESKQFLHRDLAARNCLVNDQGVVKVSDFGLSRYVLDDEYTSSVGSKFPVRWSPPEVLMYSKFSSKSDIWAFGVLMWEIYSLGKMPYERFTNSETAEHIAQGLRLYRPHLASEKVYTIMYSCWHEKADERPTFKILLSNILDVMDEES

SMILES | IC50 [1] [nM] | IC50 [nM]
C=CC(=O)N1CCN([C@H]2CCNc3c2nn(-c2ccc(Oc4cccc(OC)c4)cc2)c3C(N)=O)CC1 [Example 98, (7S)-2-[4-(3-methoxyphenoxy)phenyl]-7-[4-(prop-2-enoyl)piperazin-1-yl]-4,5,6,7-tetrahydro-2H-pyrazolo[4,3-b]pyridine-3-carboxamide] | 14.4 | 
C=CC(=O)N1CCN(C2CCNc3c2nn(-c2ccc(Oc4cc(F)cc(F)c4)cc2)c3C(N)=O)CC1 (centres unmarked) [Example 55, 2-[4-(3,5-difluorophenoxy)phenyl]-7-[4-(prop-2-enoyl)piperazin-1-yl]-4,5,6,7-tetrahydro-2H-pyrazolo[4,3-b]pyridine-3-carboxamide] | 7.63 | 
CC#CC(=O)N1CCC(C2CCNc3c2nn(-c2ccc(Oc4ccccc4)cc2)c3C(N)=O)CC1 (centres unmarked) [Example 2, 7-[1-(but-2-ynoyl)piperidin-4-yl]-2-(4-phenoxyphenyl)-4,5,6,7-tetrahydro-2H-pyrazolo[4,3-b]pyridine-3-carboxamide] | 4.07 | 
C=CC(=O)N1CCC(C2CCNc3c2nn(-c2ccc(Oc4ccc(F)cc4)cc2)c3C(N)=O)CC1 (centres unmarked) [Example 11, 2-[4-(4-fluorophenoxy)phenyl]-7-[1-(prop-2-enoyl)piperidin-4-yl]-4,5,6,7-tetrahydro-2H-pyrazolo[4,3-b]pyridine-3-carboxamide] | 2.25 | 
NC(=O)c1c2c(nn1-c1ccc(Oc3ccccc3)cc1)C(N1CCN(C(=O)CF)CC1)CCN2 (centres unmarked) [Example 49, 7-[4-(fluoroacetyl)piperazin-1-yl]-2-(4-phenoxyphenyl)-4,5,6,7-tetrahydro-2H-pyrazolo[4,3-b]pyridine-3-carboxamide] |  | 398
C=CC(=O)N1C[C@@H]2C[C@H]1CN2C1CCNc2c1nn(-c1ccc(Oc3ccccc3)cc1)c2C(N)=O (stereo partly drawn) [Example 34, 2-(4-phenoxyphenyl)-7-[(1S,4S)-5-(prop-2-enoyl)-2,5-diazabicyclo[2.2.1]heptan-2-yl]-4,5,6,7-tetrahydro-2H-pyrazolo[4,3-b]pyridine-3-carboxamide] | 12.5 | 
C=CC(=O)N1CCCN(C2CCNc3c2nn(-c2ccc(Oc4ccccc4)cc2)c3C(N)=O)CC1 (centres unmarked) [Example 25, trifluoroacetic acid-2-(4-phenoxyphenyl)-7-[4-(prop-2-enoyl)-1,4-diazepan-1-yl]-4,5,6,7-tetrahydro-2H-pyrazolo[4,3-b]pyridine-3-carboxamide (1/1)] | 29.4 | 
CC#CC(=O)N1CCN(C2CCNc3c2nn(-c2ccc(Oc4ccccc4)cc2)c3C(N)=O)CC1 (centres unmarked) [Example 27, 7-[4-(but-2-ynoyl)piperazin-1-yl]-2-(4-phenoxyphenyl)-4,5,6,7-tetrahydro-2H-pyrazolo[4,3-b]pyridine-3-carboxamide] | 126 | 
C=CC(=O)N1CCN(C2CCNc3c2nn(-c2ccc(Oc4ccccc4)cc2)c3C(N)=O)C[C@H]1C (stereo partly drawn) [Example 42, 7-[(3R)-3-methyl-4-(prop-2-enoyl)piperazin-1-yl]-2-(4-phenoxyphenyl)-4,5,6,7-tetrahydro-2H-pyrazolo[4,3-b]pyridine-3-carboxamide] | 11.8 | 
C=CC(=O)N1CCC([C@@H]2CCNc3c2nn(-c2ccc(Oc4ccccc4)cc2)c3C(N)=O)CC1 [Example 5, (7S)-2-(4-phenoxyphenyl)-7-[1-(prop-2-enoyl)piperidin-4-yl]-4,5,6,7-tetrahydro-2H-pyrazolo[4,3-b]pyridine-3-carboxamide] | 10.5 | 
C=CC(=O)N1CCN([C@H]2CCNc3c2nn(-c2ccc(Oc4ccc(C)cc4)cc2)c3C(N)=O)CC1 [Example 96, (7S)-2-[4-(4-methylphenoxy)phenyl]-7-[4-(prop-2-enoyl)piperazin-1-yl]-4,5,6,7-tetrahydro-2H-pyrazolo[4,3-b]pyridine-3-carboxamide] | 59.2 | 
C/C=C/C(=O)N1CCN([C@@H]2CCNc3c2nn(-c2ccc(Oc4ccccc4)cc2)c3C(N)=O)CC1 [Example 47, (7R)-7-{4-[(2E)-but-2-enoyl]piperazin-1-yl}-2-(4-phenoxyphenyl)-4,5,6,7-tetrahydro-2H-pyrazolo[4,3-b]pyridine-3-carboxamide] | 819 | 
C=CC(=O)N1CCN([C@H]2CCNc3c2nn(-c2ccc(Oc4ccccc4)cc2)c3C(N)=O)[C@@H](C)C1 (single isomer, unassigned) [Example 31] | 88.3 | 
CN(C)C/C=C/C(=O)N1CCN([C@@H]2CCNc3c2nn(-c2ccc(Oc4ccccc4)cc2)c3C(N)=O)CC1 [Example 46, (7R)-7-{4-[(2E)-4-(dimethylamino)but-2-enoyl]piperazin-1-yl}-2-(4-phenoxyphenyl)-4,5,6,7-tetrahydro-2H-pyrazolo[4,3-b]pyridine-3-carboxamide] | 76.7 | 
C=CC(=O)N1CCN([C@H]2CCNc3c2nn(-c2ccc(Oc4cccc(C)c4)cc2)c3C(N)=O)CC1 [Example 95, (7S)-2-[4-(3-methylphenoxy)phenyl]-7-[4-(prop-2-enoyl)piperazin-1-yl]-4,5,6,7-tetrahydro-2H-pyrazolo[4,3-b]pyridine-3-carboxamide] | 14.1 | 
C=CC(=O)N1C[C@@H](C)N(C2CCNc3c2nn(-c2ccc(Oc4ccccc4)cc2)c3C(N)=O)C[C@@H]1C (stereo partly drawn) [Example 21, 7-[(2R,5S)-2,5-dimethyl-4-(prop-2-enoyl)piperazin-1-yl]-2-(4-phenoxyphenyl)-4,5,6,7-tetrahydro-2H-pyrazolo[4,3-b]pyridine-3-carboxamide] | 919 | 
C=CC(=O)N1CCN([C@H]2CCNc3c2nn(-c2ccc(Oc4ccccc4OC(F)(F)F)cc2)c3C(N)=O)CC1 [Example 100, (7S)-7-[4-(prop-2-enoyl)piperazin-1-yl]-2-{4-[2-(trifluoromethoxy)phenoxy]phenyl}-4,5,6,7-tetrahydro-2H-pyrazolo[4,3-b]pyridine-3-carboxamide] | 46.3 | 
C=CC(=O)N1CCN(C2CCNc3c2nn(-c2ccc(Oc4ccccc4)cc2)c3C(N)=O)C[C@H]1C(C)C (stereo partly drawn) [Example 20, 2-(4-phenoxyphenyl)-7-[(3R)-3-(propan-2-yl)-4-(prop-2-enoyl)piperazin-1-yl]-4,5,6,7-tetrahydro-2H-pyrazolo[4,3-b]pyridine-3-carboxamide] | 3.17 | 
C=CC(=O)N1CCN([C@H]2CCNc3c2nn(-c2ccc(Oc4ccc(OC(F)(F)F)cc4)cc2)c3C(N)=O)CC1 [Example 102, (7S)-7-[4-(prop-2-enoyl)piperazin-1-yl]-2-{4-[4-(trifluoromethoxy)phenoxy]phenyl}-4,5,6,7-tetrahydro-2H-pyrazolo[4,3-b]pyridine-3-carboxamide] | > 1000 | 
C=CC(=O)N1CCN([C@@H]2CCNc3c2nn(-c2ccc(Oc4ccccc4)cc2)c3C(N)=O)[C@@H](C)C1 (single isomer, unassigned) [Example 32] | 18.1 | 
C=CC(=O)N1CCN([C@H]2CCNc3c2nn(-c2ccc(Oc4ccccc4)cc2)c3C(N)=O)CC1 [Example 7, (7S)-2-(4-phenoxyphenyl)-7-[4-(prop-2-enoyl)piperazin-1-yl]-4,5,6,7-tetrahydro-2H-pyrazolo[4,3-b]pyridine-3-carboxamide] | 11.5 | 
C=CC(=O)N1CCC([C@@H]2CCNc3c2nn(-c2ccc(Oc4ccc(F)cc4F)cc2)c3C(N)=O)CC1 [Example 29, (7S)-2-[4-(2,4-difluorophenoxy)phenyl]-7-[1-(prop-2-enoyl)piperidin-4-yl]-4,5,6,7-tetrahydro-2H-pyrazolo[4,3-b]pyridine-3-carboxamide] | 24.2 | 
NC(=O)/C=C/C(=O)N1CCN([C@@H]2CCNc3c2nn(-c2ccc(Oc4ccccc4)cc2)c3C(N)=O)CC1 [Example 48, (7R)-7-{4-[(2E)-4-amino-4-oxobut-2-enoyl]piperazin-1-yl}-2-(4-phenoxyphenyl)-4,5,6,7-tetrahydro-2H-pyrazolo[4,3-b]pyridine-3-carboxamide] | 51.1 | 
C=CC(=O)N1CCC[C@@H]([C@@H]2CCNc3c2nn(-c2ccc(Oc4ccccc4)cc2)c3C(N)=O)C1 (racemic) [Example 9, (7RS)-2-(4-phenoxyphenyl)-7-[(3RS)-1-(prop-2-enoyl)piperidin-3-yl]-4,5,6,7-tetrahydro-2H-pyrazolo[4,3-b]pyridine-3-carboxamide] | 13.8 | 
C=CC(=O)N1CCC(C2CCNc3c2nn(-c2ccc(Oc4ccccc4)cc2)c3C(N)=O)C1 (mixture of isomers) [Example 10, 2-(4-phenoxyphenyl)-7-[1-(prop-2-enoyl)pyrrolidin-3-yl]-4,5,6,7-tetrahydro-2H-pyrazolo[4,3-b]pyridine-3-carboxamide] | 3.78 | 
C=CC(=O)N1CCN([C@H]2CCNc3c2nn(-c2ccc(Oc4ccccc4C)cc2)c3C(N)=O)CC1 [Example 94, (7S)-2-[4-(2-methylphenoxy)phenyl]-7-[4-(prop-2-enoyl)piperazin-1-yl]-4,5,6,7-tetrahydro-2H-pyrazolo[4,3-b]pyridine-3-carboxamide] | 23.5 | 
